# Measurements as given in US9457087B2, “Stable crystal modifications of DOTAP chloride” (Merck Patent GmbH, priority 2004, dated 2016).
# Experiments:
# [1] = Storage stability of crystalline DOTAP chlorides (HPLC purity and content); assay type: physicochemical; conditions: 25° C., 60% relative humidity, exclusion of air
# Procedure: In order to determine the stability of crystalline DOTAP chlorides, the substances are stored together with comparative samples at 25° C. and 60% relative humidity with exclusion of air. The remaining content of DOTAP chloride is measured at periodic intervals and quoted in comparison to the initial value.
# The purity and content of DOTAP chloride are determined by means of HPLC.
# [2] = Solubility in acetonitrile; assay type: physicochemical; conditions: room temperature
# [3] = DSC principal phase transition temperatures of multilamellar liposomes in water; assay type: physicochemical; conditions: heating cycles, lipid 0.1 g/ml, 1° C./min
# Procedure: Differential scanning caliometry (DSC) measurements are carried out on multilamellar liposomes in water. Liposomes are prepared by the thin-film method from the calculated amounts of racemic or enantiomerically pure DOTAP chloride. The lipid concentration here is in each case 0.1 g/ml. Suitable amounts of these dispersions are then introduced into sealable aluminium crucibles and measured using a 204 Phoenix calorimeter (Netzsch, Seib, Germany). In each case, three successive heating/cooling runs from −50° C. to +20° C. are carried out at 1° C./min.
# For all three DOTAP chloride variants, phase transition temperatures below 0° C. are found. For the cooling cycles, this is in each case at −23° C. to −24° C. Differences between racemic and enantiomerically pure DOTAP chloride are in each case evident in the heating cycles. […] (see FIG. 6).
# [4] = storage under protective gas at −20° C.; guaranteed by manufacturer; cited from earlier work
# [5] = Hygroscopicity at normal atmospheric humidity; assay type: physicochemical; conditions: normal atmospheric humidity levels
smiles,measurement,setting,value
"CCCCCCCC/C=C\CCCCCCCC(=O)OCC(C[N+](C)(C)C)OC(=O)CCCCCCC/C=C\CCCCCCCC.[Cl-] (racemic) [(R,S)-DOTAP chloride crystalline type I, N,N,N-trimethyl-2,3-bis[[(9Z)-1-oxo-9-octadecenyl]oxy]-1-propanaminium chloride]",% by weight (content of DOTAP chloride),[1]; exposure time 0 months,98.6%
same,Area-% (HPLC purity),[1]; exposure time 0 months,100%
same,% by weight (content of DOTAP chloride),[1]; exposure time 1 month,97.%
same,Area-% (HPLC purity),[1]; exposure time 1 month,100.0%
same,% by weight (content of DOTAP chloride),[1]; exposure time 2 months,97.9%
same,Area-% (HPLC purity),[1]; exposure time 2 months,100.0%
same,% by weight (content of DOTAP chloride),[1]; exposure time 3 months,97.2%
same,Area-% (HPLC purity),[1]; exposure time 3 months,100.0%
same,% by weight (content of DOTAP chloride),[1]; exposure time 6 months,98.2%
same,Area-% (HPLC purity),[1]; exposure time 6 months,100.0%
same,% by weight (content of DOTAP chloride),[1]; exposure time 12 months,98.7%
same,Area-% (HPLC purity),[1]; exposure time 12 months,100.0%
"CCCCCCCC/C=C\CCCCCCCC(=O)OCC(C[N+](C)(C)C)OC(=O)CCCCCCC/C=C\CCCCCCCC.[Cl-] (racemic) [racemate, N,N,N-trimethyl-2,3-bis[[(9Z)-1-oxo-9-octadecenyl]oxy]-1-propanaminium chloride]",solubility in acetonitrile,[2],virtually insoluble
same,endothermic phase transition temperature,[3],−17.5 °C
CCCCCCCC/C=C\CCCCCCCC(=O)OC[C@@H](C[N+](C)(C)C)OC(=O)CCCCCCC/C=C\CCCCCCCC.[Cl-] [(2R)-DOTAP chloride],endothermic phase transition temperature,[3],around −12.5 °C
CCCCCCCC/C=C\CCCCCCCC(=O)OC[C@H](C[N+](C)(C)C)OC(=O)CCCCCCC/C=C\CCCCCCCC.[Cl-] [(2S)-DOTAP],endothermic phase transition temperature,[3],around −12.5 °C
CCCCCCCC/C=C\CCCCCCCC(=O)OCC(C[N+](C)(C)C)OC(=O)CCCCCCC/C=C\CCCCCCCC.[Cl-] (stereo not drawn) [amorphous DOTAP chloride],shelf life,[4],about 6 months
same,hygroscopicity,[5],extremely hygroscopic
